Reference: ChEMBL document CHEMBL1130672, “Evaluation of a structure-based statine cyclic diamino amide encoded combinatorial library against plasmepsin II and cathepsin D” (Bioorg Med Chem Lett, 1998)

Legend:
Plasmepsin II = Plasmepsin II (Plasmodium falciparum, UniProt P46925); assay: Inhibitory activity against plasmepsin-2
Cathepsin D = Cathepsin D (Homo sapiens, UniProt P07339); assay: Compound was tested for inhibitory activity against cathepsin D
Plasmodium falciparum = assay: Inhibitory concentration for Plasmodium falciparum culture; format: functional, organism-based

Chain of Plasmepsin II (P46925 whole entry): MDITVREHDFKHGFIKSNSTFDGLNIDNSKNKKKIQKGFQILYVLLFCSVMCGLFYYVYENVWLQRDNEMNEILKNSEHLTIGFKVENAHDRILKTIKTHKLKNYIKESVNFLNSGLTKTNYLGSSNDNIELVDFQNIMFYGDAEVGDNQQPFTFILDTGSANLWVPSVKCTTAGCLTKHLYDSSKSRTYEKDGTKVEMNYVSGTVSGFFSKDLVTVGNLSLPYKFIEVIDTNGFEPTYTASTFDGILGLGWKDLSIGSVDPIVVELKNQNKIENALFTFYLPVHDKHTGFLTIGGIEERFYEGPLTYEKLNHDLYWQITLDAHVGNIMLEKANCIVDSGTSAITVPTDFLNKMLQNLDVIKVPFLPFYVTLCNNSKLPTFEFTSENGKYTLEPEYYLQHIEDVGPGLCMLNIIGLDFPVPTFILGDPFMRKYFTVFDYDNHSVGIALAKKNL
Chain of Cathepsin D (P07339 65-162 limits assumed): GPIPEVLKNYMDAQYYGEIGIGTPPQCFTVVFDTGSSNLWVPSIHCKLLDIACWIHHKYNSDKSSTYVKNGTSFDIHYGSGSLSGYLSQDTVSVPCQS
Chain of Cathepsin D (P07339 169-412 limits assumed): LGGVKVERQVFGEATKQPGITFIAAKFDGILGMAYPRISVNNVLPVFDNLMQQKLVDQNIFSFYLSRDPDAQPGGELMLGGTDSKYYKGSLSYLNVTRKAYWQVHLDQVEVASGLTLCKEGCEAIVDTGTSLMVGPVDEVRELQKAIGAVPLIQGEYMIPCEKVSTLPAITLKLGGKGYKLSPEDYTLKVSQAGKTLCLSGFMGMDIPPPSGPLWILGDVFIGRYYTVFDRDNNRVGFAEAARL

Row | IC50 (Plasmepsin II) | Ki (Cathepsin D) | Ki (Plasmepsin II) | IC50 (Plasmodium falciparum) | IC50 (Cathepsin D) | Structure (SMILES)
1 | ~40 µM | 5.3 µM | – | – | – | CCCCNC(=O)C[C@H](O)[C@H](Cc1ccccc1)NC(=O)CC1CN(Cc2cc(OC)c(OC)c(OC)c2)CCN1C(=O)c1ccc(OC(C)C)cc1 (some centres undefined)
2 | – | – | 0.49 µM | 3 µM | ~45 µM | CCCCNC(=O)C[C@H](O)[C@H](Cc1ccccc1)NC(=O)CC1CN(Cc2ccc(-c3ccccc3)cc2)CCN1C(=O)CC(CN)c1ccc(Cl)cc1 (some centres undefined)
3 | ~100 µM | 1.1 µM | – | – | – | CCCCNC(=O)C[C@H](O)[C@H](Cc1ccccc1)NC(=O)C1CN(C(=O)CCCCC(=O)OCC)CCN1C(=O)CCc1cc(OC)c(OC)c(OC)c1 (some centres undefined)
4 | ~65 µM | 1.8 µM | – | – | – | CCCCNC(=O)C[C@H](O)[C@H](Cc1ccccc1)NC(=O)C1CN(CCOCCc2ccccc2)CCN1C(=O)CCc1cc(OC)c(OC)c(OC)c1 (some centres undefined)
